The record followed here is publication PMC9865501, “Design and Synthesis of Scopoletin Sulfonate Derivatives as Potential Insecticidal Agents” (Molecules, 2023).

The test system of data set [1] is T. cinnabarinus. In words: Acaricidal activity against T. cinnabarinus (leaf spray on broad bean, 72 h). It counts as in vivo, Tetranychus cinnabarinus. Particulars: for LC50: Tetranychus cinnabarinus; for acaricidal toxicity relative to compound 5: compared with compound 5. The method, then: An acaricidal activity assay of the test compounds against mites was conducted according to procedures outlined in the literature. […] The stock solution was then diluted to a series of working concentrations with 1% Tween 80 to obtain the test solutions. Subsequently, the leaves of two-leaf-stage broad beans were inoculated with 150–200 female adult T. cinnabarinus mites and reared in a greenhouse (26 ± 1 °C, 75–80% RH, 16 h light and 8 h dark alternatively) for 8 h. The test solution of the compound was then evenly sprayed on these leaves, which were then cultivated in the greenhouse for 72 h. In the blank control group, Tween 80 (1%) was used instead of the treatment solution. Cyetpyrafen (CAS NO. 1253429-01-4) was used as a positive control. Each treatment was repeated three times. The dead insects were recorded under a stereoscope, and the corrected mortalities of mites treated with the compounds were calculated.

The nature of data set [2]: Toxicity to brine shrimp Artemia. It counts as in vivo, Artemia salina. Particulars: Artemia salina (brine shrimp), in vivo, other: immersion in test solution, read-out: Lethal activity to Artemia LC50. The procedure:
(§1) The toxicity of the title compounds to the brine shrimp A. salina was evaluated according to the reported method. […] Subsequently, approximately 50 hatched (10 h instar) brine shrimp were transferred into each pore of a 24-well plate filled with the test solutions. Finally, the brine shrimp were reared in an illumination incubator (28 ± 1 °C, 12 h light and 12 h dark alternatively) for 24 h. DMSO—1% Tween 20 was used as a blank control. Each treatment was conducted in triplicate. The dead insects were recorded under a stereoscope, and the corrected mortalities of A. salina treated with the compounds were calculated.

In data set [3] the target is T1, AChE (Electrophorus electricus, UniProt O42275).
T1 construct: purchased Sigma–Aldrich Chemie GmbH (Buchs, Switzerland)
T1 sequence (O42275 24-633): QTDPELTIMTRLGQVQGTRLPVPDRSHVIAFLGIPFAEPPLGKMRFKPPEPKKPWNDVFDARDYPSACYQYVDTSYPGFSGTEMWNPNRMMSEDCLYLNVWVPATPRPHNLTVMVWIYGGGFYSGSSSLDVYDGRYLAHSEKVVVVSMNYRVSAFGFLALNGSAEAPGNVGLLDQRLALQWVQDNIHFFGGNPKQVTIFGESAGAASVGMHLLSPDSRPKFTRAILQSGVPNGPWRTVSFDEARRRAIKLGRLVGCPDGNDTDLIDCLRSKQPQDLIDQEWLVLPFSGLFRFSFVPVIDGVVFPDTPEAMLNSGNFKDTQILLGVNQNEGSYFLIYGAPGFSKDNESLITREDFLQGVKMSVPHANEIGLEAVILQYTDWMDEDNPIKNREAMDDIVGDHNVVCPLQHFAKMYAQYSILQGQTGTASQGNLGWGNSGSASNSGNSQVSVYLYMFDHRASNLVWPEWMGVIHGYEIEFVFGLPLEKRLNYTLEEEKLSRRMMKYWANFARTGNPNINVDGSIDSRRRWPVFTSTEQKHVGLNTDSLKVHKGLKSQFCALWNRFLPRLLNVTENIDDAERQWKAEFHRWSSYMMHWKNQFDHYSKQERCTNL
Kind of data set: In vitro AChE inhibition (ELISA kit). Type of data set: biochemical, electric eels. The procedure:
The effects of the title compounds on the in vitro AChE activity were evaluated using ELISA technology. AChE derived from electric eels was purchased from Sigma–Aldrich Chemie GmbH (Buchs, Switzerland). Briefly, the AChE was preincubated with different concentrations (500, 250, 125, 62.5, 31.25, 15.625, and 7.8125 μg/mL) of the compounds in PBS solution. Then, the AChE activities after incubation were measured using the corresponding ELISA kit according to the manufacturer’s instructions (Jiancheng, Nanjing, China). The detection was performed using a multifunctional microplate reader (SpectraMax® M2e, Thermo Scientific, Waltham, MA, USA).
(ELISA stands for enzyme-linked immunosorbent assay.)

The subject of data set [4] is A. salina. Kind of data set: Toxicity to brine shrimp Artemia. Type of data set: in vivo, Artemia salina. The procedure:
as §1

Setting [5] is: 72 h, Table S1, read-out: Acaricidal activity LC50.
Where [6] appears, read: 72 h, main text and Figure 5, read-out: LC50 against T. cinnabarinus.

In brackets after ≈: the same amount, converted by molar mass. Where two headings read alike, the source gives them in different places.

As usually defined, the LC50 is the concentration lethal to half of the exposed cells or organisms. As usually defined, the IC50 is the concentration that inhibits the measured activity by half. High values mean weaker potency, low ones greater potency. `COc1cc2ccc(=O)oc2cc1OS(=O)(=O)c1ccc(C(F)(F)F)cc1` [Compound 4f]: the LC50 in data set [1] (setting [5]) is 441 µg/mL (≈ 1100 µM). In addition, in data set [2], the LC50 at 6 h was found to be 109 µg/mL (≈ 272 µM) and the LC50 at 12 h was 75.6 µg/mL (≈ 189 µM). In data set [3], half-maximal inhibition (IC50) was put at 420 µM.

For the compound `COc1cc2ccc(=O)oc2cc1OS(=O)(=O)c1ccccc1` [Compound 4a], the median lethal concentration (LC50) in data set [1] (setting [5]) was 448 µg/mL (≈ 1350 µM). Besides, in data set [2], the LC50 at 6 h was 47 µg/mL (≈ 141 µM) and the LC50 at 12 h is 29.1 µg/mL (≈ 87.6 µM). In data set [3], this compound showed a half-inhibitory concentration (IC50) of 431 µM.

Take `COc1cc2cc(C(=O)Nc3ccc(Br)cc3)c(=O)oc2cc1O` [Compound 7, 3-(4-bromoaniline formyl)-7-hydroxy-6-methoxy-2H-chromen-2-one]: the LC50 in data set [1] (setting [5]) came to 82 µg/mL (≈ 210 µM). Besides, the LC50 in data set [1] (setting [6]) was in the range of 81 to 116 µg/mL (≈ 208 to 297 µM). Also, in data set [2], the LC50 at 6 h worked out at 52.3 µg/mL (≈ 134 µM) and the LC50 at 12 h was determined as 32.3 µg/mL (≈ 82.8 µM). Moreover, the half-inhibitory concentration (IC50) in data set [3] is 197 µM.

Turning to `COc1cc2cc(-c3ccc(F)cc3)c(=O)oc2cc1OS(=O)(=O)c1ccc([N+](=O)[O-])cc1` [Compound 5g], the LC50 in data set [1] (setting [5]) worked out at 68 µg/mL (≈ 144 µM). For the same compound, the “acaricidal toxicity relative to compound 5” value in data set [1] is reported as “approximately 2 times”. Besides, in data set [2], the LC50 at 6 h was 86.6 µg/mL (≈ 184 µM) and the LC50 at 12 h came out at 53.6 µg/mL (≈ 114 µM). The IC50 in data set [3] is 261 µM.

Take `COc1cc2ccc(=O)oc2cc1OS(=O)(=O)c1cc(Cl)c(Cl)cc1Cl` [Compound 4h]: the LC50 in data set [1] (setting [5]) is 832 µg/mL (≈ 1910 µM). For the same compound, in data set [2], the LC50 at 6 h worked out at 131 µg/mL (≈ 301 µM) and the 50% lethal concentration (LC50) at 12 h is 125 µg/mL (≈ 287 µM). Moreover, the IC50 in data set [3] is 421 µM.

Take `COc1cc2cc(-c3ccc(F)cc3)c(=O)oc2cc1OS(=O)(=O)c1ccc(F)cc1` [Compound 5c]: the 50% lethal concentration (LC50) in data set [1] (setting [5]) was determined as 94 µg/mL (≈ 212 µM). For the same compound, in data set [2], the LC50 at 6 h came out at 94.7 µg/mL (≈ 213 µM) and the median lethal concentration (LC50) at 12 h is 48.6 µg/mL (≈ 109 µM). The midpoint of inhibition in data set [3], the IC50, lay at 192 µM.

For the compound `CCn1nc(C)cc1/C(OC(=O)C(C)(C)C)=C(/C#N)c1ccc(C(C)(C)C)cc1` [Cyetpyrafen, reference compound], in data set [1] (72 h, main text and Figure 5), the “LC50 against T. cinnabarinus” value turned out to be 15.0 µg/mL (≈ 38.1 µM). Further, the entries for the “Lethal activity to Artemia LC50” value in data set [4] (6 h) and in data set [4] (12 h) were 11.7 µg/mL and 6.13 µg/mL, respectively. Besides, the “AChE inhibition IC50” value in data set [3] is 14.06 ± 10.20 µg/mL.

Consider `COc1cc2ccc(=O)oc2cc1OS(=O)(=O)c1ccc(Br)cc1` [Compound 4e], for which the median lethal concentration (LC50) in data set [1] (setting [5]) worked out at 636 µg/mL (≈ 1550 µM). In addition, in data set [2], the 50% lethal concentration (LC50) at 6 h amounted to 157 µg/mL (≈ 382 µM) and the LC50 at 12 h came out at 89.8 µg/mL (≈ 218 µM). The IC50 in data set [3] is 343 µM.

As to `COc1cc2ccc(=O)oc2cc1OS(=O)(=O)c1ccc([N+](=O)[O-])cc1` [Compound 4g], in data set [1] (setting [5]), the LC50 stood at 183 µg/mL (≈ 485 µM). In data set [2], the LC50 at 6 h is 46.7 µg/mL (≈ 124 µM) and the LC50 at 12 h was 25.6 µg/mL (≈ 67.8 µM). This compound had an IC50 in data set [3] of 353 µM.

As to `COc1cc2cc(-c3ccc(F)cc3)c(=O)oc2cc1OS(=O)(=O)c1ccc2ccccc2c1` [Compound 5j], the 50% lethal concentration (LC50) in data set [1] (setting [6]) was 20 µg/mL (≈ 42 µM). Further, the “acaricidal toxicity relative to compound 5” value in data set [1] was about 5 times. Further, in data set [2], the LC50 at 6 h came to 77.9 µg/mL (≈ 163 µM) and the LC50 at 12 h is 29.7 µg/mL (≈ 62.3 µM). Moreover, the IC50 in data set [3] is 115 µM.

As to `COc1cc2cc(-c3ccc(F)cc3)c(=O)oc2cc1OS(=O)(=O)c1ccccc1` [Compound 5a], in data set [1] (setting [6]), the LC50 is 57 µg/mL (≈ 134 µM). In data set [1], the “acaricidal toxicity relative to compound 5” value is “approximately 2 times”. Also, in data set [2], the LC50 at 6 h was determined as 95.8 µg/mL (≈ 225 µM) and the LC50 at 12 h stood at 55.8 µg/mL (≈ 131 µM). The compound also showed an IC50 in data set [3] of 95.2 µM.

`COc1cc2ccc(=O)oc2cc1OS(=O)(=O)c1ccc(F)cc1` [Compound 4c]: in data set [1] (setting [5]), the LC50 worked out at 318 µg/mL (≈ 908 µM). Besides, in data set [2], the LC50 at 6 h turned out to be 91.5 µg/mL (≈ 261 µM) and the 50% lethal concentration (LC50) at 12 h was 56.3 µg/mL (≈ 161 µM). Moreover, inhibition in data set [3] was half-maximal at 362 µM (IC50).

In the case of `COc1cc2cc(-c3ccc(F)cc3)c(=O)oc2cc1OS(=O)(=O)c1cc(Cl)c(Cl)cc1Cl` [Compound 5h], the median lethal concentration (LC50) in data set [1] (setting [5]) was 96 µg/mL (≈ 181 µM). In addition, in data set [2], the LC50 at 6 h was determined as 106 µg/mL (≈ 200 µM) and the LC50 at 12 h was 57.6 µg/mL (≈ 109 µM). In data set [3], this compound showed an IC50 of 198 µM.

In the case of `COc1cc2cc(-c3ccc(F)cc3)c(=O)oc2cc1OS(=O)(=O)c1ccc(C(F)(F)F)cc1` [Compound 5f], the LC50 in data set [1] (setting [5]) amounted to 104 µg/mL (≈ 210 µM). Besides, in data set [2], the LC50 at 6 h was determined as 71.5 µg/mL (≈ 145 µM) and the LC50 at 12 h came out at 39.9 µg/mL (≈ 80.7 µM). Besides, the midpoint of inhibition in data set [3], the IC50, lay at 242 µM.
